Results taken from ChEMBL document CHEMBL1909046, “DrugMatrix in vitro pharmacology data”.

target: Melanocortin receptor 5 (Homo sapiens, UniProt P33032); test: not given; type: cell membranes, HEK293, Membrane; details: hek293
Further: in other assays of this panel Not Active means under 50% inhibition at 10 µM.

Melanocortin receptor 5, sequence (P33032 whole entry): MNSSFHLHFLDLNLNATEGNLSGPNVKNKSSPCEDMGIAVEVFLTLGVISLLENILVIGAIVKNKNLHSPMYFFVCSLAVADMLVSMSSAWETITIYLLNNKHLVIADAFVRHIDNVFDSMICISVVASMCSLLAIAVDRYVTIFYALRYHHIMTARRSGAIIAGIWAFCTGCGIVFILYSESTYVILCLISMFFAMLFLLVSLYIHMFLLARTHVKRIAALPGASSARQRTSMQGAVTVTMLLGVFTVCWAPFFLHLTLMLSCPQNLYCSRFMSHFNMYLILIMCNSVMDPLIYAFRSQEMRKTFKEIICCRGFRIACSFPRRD

Row | Compound | IC50
1 | COC(=O)CCc1ccc(OCC(O)CNC(C)C)cc1 (stereo not given) [ESMOLOL] | Not Active
2 | CCC1(C)CC(=O)NC1=O (stereo not given) [ETHOSUXIMIDE] | Not Active
3 | C#C[C@]1(OC(C)=O)CC[C@H]2[C@@H]3CCC4=C[C@@H](OC(C)=O)CC[C@@H]4[C@H]3CC[C@@]21C [ETHYNODIOL DIACETATE] | Not Active
4 | COc1cc([C@@H]2c3cc4c(cc3[C@@H](O[C@@H]3O[C@@H]5CO[C@@H](C)O[C@H]5[C@H](O)[C@H]3O)[C@H]3COC(=O)[C@H]23)OCO4)cc(OC)c1O [ETOPOSIDE] | Not Active
5 | C=CCc1ccc(O)c(OC)c1 [EUGENOL] | Not Active
6 | CC(C(=O)O)c1cccc(Oc2ccccc2)c1 (stereo not given) [FENOPROFEN] | Not Active
7 | CC(C)(C)NC(=O)[C@H]1CC[C@H]2[C@@H]3CC[C@H]4NC(=O)C=C[C@]4(C)[C@H]3CC[C@]12C [FINASTERIDE] | Not Active
8 | COc1ccc2c3c1O[C@H]1C[C@@H](O)C=C[C@@]31CCN(C)C2 [GALANTAMINE] | Not Active
9 | Nc1ccn([C@@H]2O[C@H](CO)[C@@H](O)C2(F)F)c(=O)n1 [GEMCITABINE] | Not Active
10 | CC(C)=CCC/C(C)=C/CO [GERANIOL] | Not Active

target: Mitogen-activated protein kinase 14 (Homo sapiens, UniProt Q16539); test: not given; set-up: species or system Escherichia coli; details: not given;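 further: inhibition of p38alpha enzyme activity in a biochemical kinase assay, with myelin basic protein serving as substrate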
Sequence (Q16539 whole entry): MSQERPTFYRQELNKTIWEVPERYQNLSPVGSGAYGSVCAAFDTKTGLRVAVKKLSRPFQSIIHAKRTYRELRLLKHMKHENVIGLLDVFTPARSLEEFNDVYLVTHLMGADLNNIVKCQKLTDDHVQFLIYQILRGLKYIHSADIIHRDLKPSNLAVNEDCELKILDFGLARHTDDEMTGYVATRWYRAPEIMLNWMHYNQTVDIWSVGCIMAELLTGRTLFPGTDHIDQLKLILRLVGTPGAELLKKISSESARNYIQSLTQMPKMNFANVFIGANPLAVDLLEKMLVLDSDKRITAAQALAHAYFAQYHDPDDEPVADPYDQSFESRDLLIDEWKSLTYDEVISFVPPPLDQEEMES

Row | Compound | IC50
11 | COC(=O)CCc1ccc(OCC(O)CNC(C)C)cc1 (stereo not given) [ESMOLOL] | Not Active
12 | CCC1(C)CC(=O)NC1=O (stereo not given) [ETHOSUXIMIDE] | Not Active
13 | C#C[C@]1(OC(C)=O)CC[C@H]2[C@@H]3CCC4=C[C@@H](OC(C)=O)CC[C@@H]4[C@H]3CC[C@@]21C [ETHYNODIOL DIACETATE] | Not Active
14 | COc1cc([C@@H]2c3cc4c(cc3[C@@H](O[C@@H]3O[C@@H]5CO[C@@H](C)O[C@H]5[C@H](O)[C@H]3O)[C@H]3COC(=O)[C@H]23)OCO4)cc(OC)c1O [ETOPOSIDE] | Not Active
15 | C=CCc1ccc(O)c(OC)c1 [EUGENOL] | Not Active
16 | CC(C(=O)O)c1cccc(Oc2ccccc2)c1 (stereo not given) [FENOPROFEN] | Not Active
17 | CC(C)(C)NC(=O)[C@H]1CC[C@H]2[C@@H]3CC[C@H]4NC(=O)C=C[C@]4(C)[C@H]3CC[C@]12C [FINASTERIDE] | Not Active
18 | COc1ccc2c3c1O[C@H]1C[C@@H](O)C=C[C@@]31CCN(C)C2 [GALANTAMINE] | Not Active
19 | Nc1ccn([C@@H]2O[C@H](CO)[C@@H](O)C2(F)F)c(=O)n1 [GEMCITABINE] | Not Active
20 | CC(C)=CCC/C(C)=C/CO [GERANIOL] | Not Active

target: Voltage-gated inwardly rectifying potassium channel KCNH2 (Homo sapiens, UniProt Q12809); test: not given; details: hek293
Sequence (Q12809 whole entry): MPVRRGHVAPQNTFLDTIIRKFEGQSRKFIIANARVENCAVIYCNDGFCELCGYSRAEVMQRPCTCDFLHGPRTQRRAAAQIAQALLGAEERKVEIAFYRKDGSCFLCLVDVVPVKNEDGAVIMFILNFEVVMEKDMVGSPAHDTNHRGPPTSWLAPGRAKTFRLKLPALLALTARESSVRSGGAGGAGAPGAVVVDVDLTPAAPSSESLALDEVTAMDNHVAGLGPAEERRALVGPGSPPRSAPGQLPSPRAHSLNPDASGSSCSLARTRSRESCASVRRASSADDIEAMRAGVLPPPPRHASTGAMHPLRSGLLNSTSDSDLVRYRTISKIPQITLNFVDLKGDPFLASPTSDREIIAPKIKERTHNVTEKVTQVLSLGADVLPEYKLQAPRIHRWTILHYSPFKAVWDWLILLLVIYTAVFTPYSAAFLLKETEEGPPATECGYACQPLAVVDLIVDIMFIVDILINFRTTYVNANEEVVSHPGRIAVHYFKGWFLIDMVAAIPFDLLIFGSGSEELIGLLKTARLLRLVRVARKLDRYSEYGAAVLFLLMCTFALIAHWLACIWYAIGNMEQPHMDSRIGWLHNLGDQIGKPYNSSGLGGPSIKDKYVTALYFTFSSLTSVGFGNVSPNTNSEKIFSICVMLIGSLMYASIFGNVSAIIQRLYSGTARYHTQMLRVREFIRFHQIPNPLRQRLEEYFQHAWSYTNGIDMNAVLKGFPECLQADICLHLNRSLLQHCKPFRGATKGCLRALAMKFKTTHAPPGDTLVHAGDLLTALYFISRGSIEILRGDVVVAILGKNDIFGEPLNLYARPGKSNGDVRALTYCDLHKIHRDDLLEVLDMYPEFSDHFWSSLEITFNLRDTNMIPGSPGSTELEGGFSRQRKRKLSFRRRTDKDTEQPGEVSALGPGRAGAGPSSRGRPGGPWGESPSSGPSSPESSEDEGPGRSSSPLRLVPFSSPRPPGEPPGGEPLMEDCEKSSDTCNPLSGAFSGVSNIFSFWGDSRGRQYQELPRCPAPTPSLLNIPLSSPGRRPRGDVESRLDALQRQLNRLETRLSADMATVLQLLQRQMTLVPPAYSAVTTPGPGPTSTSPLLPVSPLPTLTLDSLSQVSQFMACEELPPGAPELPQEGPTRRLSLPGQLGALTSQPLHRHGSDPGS

Row | Compound | IC50 | Ki
21 | COC(=O)CCc1ccc(OCC(O)CNC(C)C)cc1 (stereo not given) [ESMOLOL] | Not Active | Not Active
22 | CCC1(C)CC(=O)NC1=O (stereo not given) [ETHOSUXIMIDE] | Not Active | Not Active
23 | C#C[C@]1(OC(C)=O)CC[C@H]2[C@@H]3CCC4=C[C@@H](OC(C)=O)CC[C@@H]4[C@H]3CC[C@@]21C [ETHYNODIOL DIACETATE] | Not Active | Not Active
24 | COc1cc([C@@H]2c3cc4c(cc3[C@@H](O[C@@H]3O[C@@H]5CO[C@@H](C)O[C@H]5[C@H](O)[C@H]3O)[C@H]3COC(=O)[C@H]23)OCO4)cc(OC)c1O [ETOPOSIDE] | Not Active | Not Active
25 | C=CCc1ccc(O)c(OC)c1 [EUGENOL] | Not Active | Not Active
26 | CC(C(=O)O)c1cccc(Oc2ccccc2)c1 (stereo not given) [FENOPROFEN] | Not Active | Not Active
27 | CC(C)(C)NC(=O)[C@H]1CC[C@H]2[C@@H]3CC[C@H]4NC(=O)C=C[C@]4(C)[C@H]3CC[C@]12C [FINASTERIDE] | Not Active | Not Active
28 | COc1ccc2c3c1O[C@H]1C[C@@H](O)C=C[C@@]31CCN(C)C2 [GALANTAMINE] | Not Active | Not Active
29 | Nc1ccn([C@@H]2O[C@H](CO)[C@@H](O)C2(F)F)c(=O)n1 [GEMCITABINE] | Not Active | Not Active
30 | CC(C)=CCC/C(C)=C/CO [GERANIOL] | Not Active | Not Active

target: T1, Receptor-type tyrosine-protein phosphatase C (Homo sapiens, UniProt P08575); test: not given; set-up: species or system Escherichia coli; details: not given;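 further: inhibition of CD45 enzyme activity measured using DiFMUP as substrate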
T1 sequence (P08575 whole entry): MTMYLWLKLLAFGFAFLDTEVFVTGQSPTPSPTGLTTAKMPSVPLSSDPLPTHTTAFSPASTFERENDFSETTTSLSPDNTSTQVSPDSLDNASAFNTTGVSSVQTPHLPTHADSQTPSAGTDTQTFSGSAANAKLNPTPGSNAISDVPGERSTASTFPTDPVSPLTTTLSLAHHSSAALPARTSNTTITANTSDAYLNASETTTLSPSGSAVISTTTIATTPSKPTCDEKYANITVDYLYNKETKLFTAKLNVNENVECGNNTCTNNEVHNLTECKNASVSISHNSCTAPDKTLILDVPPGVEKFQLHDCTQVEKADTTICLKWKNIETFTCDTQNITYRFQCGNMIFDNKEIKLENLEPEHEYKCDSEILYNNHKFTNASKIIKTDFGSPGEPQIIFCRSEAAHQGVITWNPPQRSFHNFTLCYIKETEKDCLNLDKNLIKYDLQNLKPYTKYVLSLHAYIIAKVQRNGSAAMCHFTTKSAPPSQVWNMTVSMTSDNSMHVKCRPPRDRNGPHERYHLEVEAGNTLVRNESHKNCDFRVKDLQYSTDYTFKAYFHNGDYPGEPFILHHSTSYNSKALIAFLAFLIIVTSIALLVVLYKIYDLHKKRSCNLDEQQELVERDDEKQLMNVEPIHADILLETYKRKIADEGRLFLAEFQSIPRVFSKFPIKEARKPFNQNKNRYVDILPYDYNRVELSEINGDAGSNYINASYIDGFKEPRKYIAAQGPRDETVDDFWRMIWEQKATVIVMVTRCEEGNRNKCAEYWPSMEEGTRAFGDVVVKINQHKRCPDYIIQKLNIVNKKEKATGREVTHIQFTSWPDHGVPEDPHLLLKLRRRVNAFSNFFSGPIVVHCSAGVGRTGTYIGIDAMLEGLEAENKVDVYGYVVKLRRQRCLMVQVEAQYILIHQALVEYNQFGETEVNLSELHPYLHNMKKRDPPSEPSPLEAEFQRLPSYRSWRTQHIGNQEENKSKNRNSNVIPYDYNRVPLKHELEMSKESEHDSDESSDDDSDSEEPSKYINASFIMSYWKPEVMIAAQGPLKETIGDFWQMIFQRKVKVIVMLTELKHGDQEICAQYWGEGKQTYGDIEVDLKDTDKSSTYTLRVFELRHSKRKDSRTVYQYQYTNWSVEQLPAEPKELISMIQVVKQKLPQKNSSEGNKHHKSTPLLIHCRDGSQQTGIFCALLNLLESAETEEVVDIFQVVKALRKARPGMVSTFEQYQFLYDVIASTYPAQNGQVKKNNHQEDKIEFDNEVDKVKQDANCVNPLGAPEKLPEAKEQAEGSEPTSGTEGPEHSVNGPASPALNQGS

Row | Compound | IC50
31 | COC(=O)CCc1ccc(OCC(O)CNC(C)C)cc1 (stereo not given) [ESMOLOL] | Not Active
32 | CCC1(C)CC(=O)NC1=O (stereo not given) [ETHOSUXIMIDE] | Not Active
33 | C#C[C@]1(OC(C)=O)CC[C@H]2[C@@H]3CCC4=C[C@@H](OC(C)=O)CC[C@@H]4[C@H]3CC[C@@]21C [ETHYNODIOL DIACETATE] | Not Active
34 | COc1cc([C@@H]2c3cc4c(cc3[C@@H](O[C@@H]3O[C@@H]5CO[C@@H](C)O[C@H]5[C@H](O)[C@H]3O)[C@H]3COC(=O)[C@H]23)OCO4)cc(OC)c1O [ETOPOSIDE] | Not Active
35 | C=CCc1ccc(O)c(OC)c1 [EUGENOL] | Not Active
36 | CC(C(=O)O)c1cccc(Oc2ccccc2)c1 (stereo not given) [FENOPROFEN] | Not Active
37 | CC(C)(C)NC(=O)[C@H]1CC[C@H]2[C@@H]3CC[C@H]4NC(=O)C=C[C@]4(C)[C@H]3CC[C@]12C [FINASTERIDE] | Not Active
38 | COc1ccc2c3c1O[C@H]1C[C@@H](O)C=C[C@@]31CCN(C)C2 [GALANTAMINE] | Not Active
39 | Nc1ccn([C@@H]2O[C@H](CO)[C@@H](O)C2(F)F)c(=O)n1 [GEMCITABINE] | Not Active
40 | CC(C)=CCC/C(C)=C/CO [GERANIOL] | Not Active

target: Tyrosine-protein kinase Fyn (Homo sapiens, UniProt P06241); test: biochemical; type: cell-based, Insect cells; details: insect cells;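 further: enzymatic inhibition of Fyn kinase activity measured with Poly(Glu:Tyr) as the phosphorylation substrate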
Sequence (P06241 whole entry): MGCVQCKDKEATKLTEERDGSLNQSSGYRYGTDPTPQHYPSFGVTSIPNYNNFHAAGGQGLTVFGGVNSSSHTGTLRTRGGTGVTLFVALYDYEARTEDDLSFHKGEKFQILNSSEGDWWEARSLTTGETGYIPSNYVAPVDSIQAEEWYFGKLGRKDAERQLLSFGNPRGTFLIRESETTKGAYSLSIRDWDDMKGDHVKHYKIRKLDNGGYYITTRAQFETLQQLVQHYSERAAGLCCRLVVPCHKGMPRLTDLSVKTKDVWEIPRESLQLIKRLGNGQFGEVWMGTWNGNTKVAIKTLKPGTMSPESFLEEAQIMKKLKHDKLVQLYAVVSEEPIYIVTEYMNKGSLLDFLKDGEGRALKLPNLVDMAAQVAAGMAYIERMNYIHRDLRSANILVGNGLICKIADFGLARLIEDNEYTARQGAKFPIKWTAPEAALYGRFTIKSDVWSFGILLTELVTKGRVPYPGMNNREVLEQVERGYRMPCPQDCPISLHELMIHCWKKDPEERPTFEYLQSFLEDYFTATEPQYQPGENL

Row | Compound | IC50
41 | COC(=O)CCc1ccc(OCC(O)CNC(C)C)cc1 (stereo not given) [ESMOLOL] | Not Active
42 | CCC1(C)CC(=O)NC1=O (stereo not given) [ETHOSUXIMIDE] | Not Active
43 | C#C[C@]1(OC(C)=O)CC[C@H]2[C@@H]3CCC4=C[C@@H](OC(C)=O)CC[C@@H]4[C@H]3CC[C@@]21C [ETHYNODIOL DIACETATE] | Not Active
44 | COc1cc([C@@H]2c3cc4c(cc3[C@@H](O[C@@H]3O[C@@H]5CO[C@@H](C)O[C@H]5[C@H](O)[C@H]3O)[C@H]3COC(=O)[C@H]23)OCO4)cc(OC)c1O [ETOPOSIDE] | Not Active
45 | C=CCc1ccc(O)c(OC)c1 [EUGENOL] | Not Active
46 | CC(C(=O)O)c1cccc(Oc2ccccc2)c1 (stereo not given) [FENOPROFEN] | Not Active
47 | CC(C)(C)NC(=O)[C@H]1CC[C@H]2[C@@H]3CC[C@H]4NC(=O)C=C[C@]4(C)[C@H]3CC[C@]12C [FINASTERIDE] | Not Active
48 | COc1ccc2c3c1O[C@H]1C[C@@H](O)C=C[C@@]31CCN(C)C2 [GALANTAMINE] | Not Active
49 | Nc1ccn([C@@H]2O[C@H](CO)[C@@H](O)C2(F)F)c(=O)n1 [GEMCITABINE] | Not Active
50 | CC(C)=CCC/C(C)=C/CO [GERANIOL] | Not Active

target: T2, Calcitonin receptor (Homo sapiens, UniProt P30988); test: not given; type: cell membranes, Membrane; details: t47d
T2 sequence (P30988 whole entry): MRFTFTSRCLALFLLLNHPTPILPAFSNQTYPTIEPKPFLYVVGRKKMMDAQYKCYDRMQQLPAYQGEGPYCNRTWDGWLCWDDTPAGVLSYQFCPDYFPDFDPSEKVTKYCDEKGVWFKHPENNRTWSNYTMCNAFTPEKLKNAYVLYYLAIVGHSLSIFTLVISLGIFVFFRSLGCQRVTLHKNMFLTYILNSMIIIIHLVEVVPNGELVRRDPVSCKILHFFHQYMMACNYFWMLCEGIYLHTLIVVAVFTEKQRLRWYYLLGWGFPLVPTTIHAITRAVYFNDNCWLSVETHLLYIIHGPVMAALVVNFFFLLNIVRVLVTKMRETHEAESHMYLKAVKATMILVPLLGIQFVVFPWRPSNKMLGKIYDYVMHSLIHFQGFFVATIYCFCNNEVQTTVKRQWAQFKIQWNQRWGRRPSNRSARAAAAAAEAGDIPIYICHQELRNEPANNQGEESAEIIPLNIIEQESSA

Row | Compound | IC50
51 | COC(=O)CCc1ccc(OCC(O)CNC(C)C)cc1 (stereo not given) [ESMOLOL] | Not Active
52 | CCC1(C)CC(=O)NC1=O (stereo not given) [ETHOSUXIMIDE] | Not Active
53 | C#C[C@]1(OC(C)=O)CC[C@H]2[C@@H]3CCC4=C[C@@H](OC(C)=O)CC[C@@H]4[C@H]3CC[C@@]21C [ETHYNODIOL DIACETATE] | Not Active
54 | COc1cc([C@@H]2c3cc4c(cc3[C@@H](O[C@@H]3O[C@@H]5CO[C@@H](C)O[C@H]5[C@H](O)[C@H]3O)[C@H]3COC(=O)[C@H]23)OCO4)cc(OC)c1O [ETOPOSIDE] | Not Active
55 | C=CCc1ccc(O)c(OC)c1 [EUGENOL] | Not Active
56 | CC(C(=O)O)c1cccc(Oc2ccccc2)c1 (stereo not given) [FENOPROFEN] | Not Active
57 | CC(C)(C)NC(=O)[C@H]1CC[C@H]2[C@@H]3CC[C@H]4NC(=O)C=C[C@]4(C)[C@H]3CC[C@]12C [FINASTERIDE] | Not Active
58 | COc1ccc2c3c1O[C@H]1C[C@@H](O)C=C[C@@]31CCN(C)C2 [GALANTAMINE] | Not Active
59 | Nc1ccn([C@@H]2O[C@H](CO)[C@@H](O)C2(F)F)c(=O)n1 [GEMCITABINE] | Not Active
60 | CC(C)=CCC/C(C)=C/CO [GERANIOL] | Not Active
